Assay results: patent publication US4431804A, “Thiazolylacetamido compounds” (Hoffmann-La Roche Inc., priority 1981, dated 1984)
Counter-ions that a name gives are not always drawn.

Experiments:
Toxicity (LD50) = settings: in vivo
Description: Toxicity of the trisodium salt of (6R,7R)-7-[(Z)-2-(2-amino-4-[…])-2-[(1-carboxy-1-methylethoxy)imino]acetamido]-3-[[(2,5-dihydro-6-hydroxy-2-methyl-5-oxo-as-triazin-3-yl)thio]methyl]-8-oxo-5-thia-1-azabicyclo[4.2.0]oct-2-ene-2-carboxylic acid: […]

Pseudomonas aeruginosa = assay: in vitro activity against 15 strains of Pseudomonas aeruginosa (minimum inhibitory concentration); type: cell-based
Description: Results (as MIC=minimum inhibitory concentration in μg/ml): […]

## Cn1nc(O)c(=O)nc1SCC1=C(C(=O)O)N2C(=O)[C@@H](NC(=O)/C(=N\OC(C)(C)C(=O)O)c3csc(N)n3)[C@H]2SC1 [Example 1, trisodium salt of (6R,7R)-7-[(Z)-2-(2-amino-4-thiazolyl)-2-[(1-carboxy-1-methylethoxy)imino]acetamido]-3-[[(2,5-dihydro-6-hydroxy-2-methyl-5-oxo-as-triazin-3-yl)thio]methyl]-8-oxo-5-thia-1-azabicyclo[4.2.0]oct-2-ene-2-carboxylic acid]
Toxicity (LD50); iv
  LD50: > 1000 mg/kg
Toxicity (LD50); po
  LD50: > 4000 mg/kg
Toxicity (LD50); sc
  LD50: > 4000 mg/kg
Pseudomonas aeruginosa; P. aeruginosa strain 1, in vitro
  MIC: 6.3 µg/mL
Pseudomonas aeruginosa; P. aeruginosa strain 2, in vitro
  MIC: 1.6 µg/mL
Pseudomonas aeruginosa; P. aeruginosa strain 3, in vitro
  MIC: 1.6 µg/mL
Pseudomonas aeruginosa; P. aeruginosa strain 4, in vitro
  MIC: 1.6 µg/mL
Pseudomonas aeruginosa; P. aeruginosa strain 5, in vitro
  MIC: 1.6 µg/mL
Pseudomonas aeruginosa; P. aeruginosa strain 6, in vitro
  MIC: 1.6 µg/mL
Pseudomonas aeruginosa; P. aeruginosa strain 7, in vitro
  MIC: 1.6 µg/mL
Pseudomonas aeruginosa; P. aeruginosa strain 8, in vitro
  MIC: 25 µg/mL
Pseudomonas aeruginosa; P. aeruginosa strain 9, in vitro
  MIC: 3.1 µg/mL
Pseudomonas aeruginosa; P. aeruginosa strain 10, in vitro
  MIC: 1.6 µg/mL
Pseudomonas aeruginosa; P. aeruginosa strain 11, in vitro
  MIC: 0.8 µg/mL
Pseudomonas aeruginosa; P. aeruginosa strain 12, in vitro
  MIC: 1.6 µg/mL
Pseudomonas aeruginosa; P. aeruginosa strain 13, in vitro
  MIC: 1.6 µg/mL
Pseudomonas aeruginosa; P. aeruginosa strain 14, in vitro
  MIC: 1.6 µg/mL
Pseudomonas aeruginosa; P. aeruginosa strain 15, in vitro
  MIC: 1.6 µg/mL
